The source of these data is patent US20050260126A1 (priority 2002, published 2005).

By IC50 is commonly meant the point on the concentration scale where inhibition reaches its midpoint.

Counter-ions that a name gives are not always drawn. Like-named read-outs stand apart in the source and are kept apart here. Where only a bound is given, the exact number is not on record here.

The test system of one data set is ScN2a cells. The following applies: for Concentration of inhibiting cell proliferation TC: mouse.
For data set [1], the system named is abnormal prion proteins in ScN2a cells with persistent infection of scrapie. The data set can be described thus: cells. The class given is cell-based, mouse. The following applies: for IC50: Mus musculus, ScN2a, 96 h, read-out: Inhibitory effects on producing abnormal prion protein IC50; for Inhibitory effects on producing abnormal prion proteins (in words): ScN2a cells.

A short description of another data set: in vivo. The following applies: male, Crj:CD1, mouse, iv.
Data set [2] relates to abnormal prion proteins (kuru plaques) in brain sections of GSS patients. Also noted: species or system human. Conditions: GSS patient brain sections, 10-200 μM in 50% ethanol, 30 minutes.
The conditions of data set [3]: Slc:ICR, mouse, not told, iv.
Data set [4] concerns abnormal prion proteins in ScN2a cells with persistent infection of scrapie. Conditions: read-out: Inhibitory effects on producing abnormal prion protein IC50 (quinacrine, literature), Doh-ura et al. 2000; cited from earlier work.

On to `CCN(CC)c1ccc(/C=C/c2nc3cc(F)ccc3[nH]2)cc1` [BF-166, 2-(4-diethylamino)-styryl-5-fluoro-benzimidazole], for which the “Concentration of inhibiting cell proliferation TC” value in the data set on ScN2a cells stood at 10 µM. For the same compound, in data set [1], the IC50 was 10 nM. The compound also returned an MTD in “in vivo” of less than 10 mg/kg. For the same compound, the “Detection of spotted depositions of abnormal prion proteins (fluorescent signals)” value (“Detection” for short) in data set [2] is “spotted fluorescent signals were observed”.

As to `CN(C)c1ncc(/C=C/c2nc3ccc(OCCF)cc3o2)s1` [BF-227, 2-[2-(2-dimethylamino-thiazol-5-yl)ethenyl]-6-(2-fluoroethoxy) benzoxazole], the “Concentration of inhibiting cell proliferation TC” value in the data set with ScN2a cells was 10 µM. For the same compound, the IC50 in data set [1] stood at 4 nM. The compound further yielded an MTD in the data set “in vivo” not below 10 mg/kg. Also, the “Detection” value in data set [2] was “spotted fluorescent signals were observed”. In addition, in data set [3], the “Permeability into the brain: content in Brain” value is on record as 7.9 % ID/g or ml and the “Permeability into the brain: content in Plasma” value is reported as 2.1 % ID/g or ml.

Take `CNc1ccc(/C=C/c2nc3ccc(O)cc3o2)cc1` [BF-165, 2-(4-methylamino)-styl-6-hydroxy-benzoazole]: in the data set on ScN2a cells, the “Concentration of inhibiting cell proliferation TC” value was 100 µM. Besides, the IC50 in data set [1] is 10 nM. For the same compound, the MTD in the data set “in vivo” is not below 10 mg/kg. The “Detection” value in data set [2] is “spotted fluorescent signals were observed”. In data set [3], the “Permeability into the brain: content in Brain” value is 7.2 % ID/g or ml and the “Permeability into the brain: content in Plasma” value was 1.9 % ID/g or ml.

`C(=C\c1nc2ccccc2s1)/c1ccccc1` [Compound N-438, 2-(2-phenylethenyl)-benzothiazole]: the “Concentration of inhibiting cell proliferation TC” value in the data set on ScN2a cells was found to be 100 µM. Moreover, the IC50 in data set [1] stood at 10 nM. In addition, in the data set “in vivo”, the MTD was not below 10 mg/kg. Besides, in data set [2], the “Detection” value was “spotted fluorescent signals were observed”. In data set [3], the “Permeability into the brain: content in Brain” value is 11 % ID/g or ml and the “Permeability into the brain: content in Plasma” value is given as 1.9 % ID/g or ml.

Take `CNc1ccc(/C=C/c2nc3ccccc3o2)cc1` [BF-169, 2-(4-methylamino)-styrylbenzoxazole]: the “Concentration of inhibiting cell proliferation TC” value in the data set with ScN2a cells turned out to be 100 µM. The IC50 in data set [1] stood at 10 nM. In addition, the MTD in “in vivo” is not below 10 mg/kg. Moreover, the “Detection” value in data set [2] is given as “spotted fluorescent signals were observed”.

For `CCN(CC)c1ccc(/C=C/c2nc3ccccc3s2)cc1` [BF-124, 4-[2-(2-benzothiazolyl)-ethenyl]-N,N-diethyl-benzenamine hydrochloride], the “Concentration of inhibiting cell proliferation TC” value in the data set on ScN2a cells amounted to 100 µM. For the same compound, the IC50 in data set [1] is 100 nM. In addition, the MTD in “in vivo” was not below 10 mg/kg. The “Detection” value in data set [2] is “spotted fluorescent signals were observed”. In addition, in data set [3], the “Permeability into the brain: content in Brain” value is listed as 2.4 % ID/g or ml and the “Permeability into the brain: content in Plasma” value was 1.6 % ID/g or ml.

For `CNc1ccc(/C=C/c2nc3cc(F)ccc3o2)cc1` [BF-145, 2-(4-methylamino)-stryl-5-fluoro-benzoxazole], the “Concentration of inhibiting cell proliferation TC” value in the data set with ScN2a cells stood at 50 µM. Besides, in data set [1], the IC50 came to 5 nM. In “in vivo”, this compound had an MTD not below 10 mg/kg. Also, the “Detection” value in data set [2] is listed as “spotted fluorescent signals were observed”. Moreover, in data set [3], the “Permeability into the brain: content in Brain” value is recorded as 4.4 % ID/g or ml and the “Permeability into the brain: content in Plasma” value was 1.2 % ID/g or ml.

As for `CCN(CC)CCCC(C)Nc1c2ccc(Cl)cc2nc2ccc(OC)cc12` (stereo not drawn) [quinacrine], in data set [4], the IC50 is 400 nM.

Take `C(=C\c1nc2ccccc2o1)/c1ccccc1` [Compound N-407, 2-(2-phenylethenyl)-benzoxazole]: in the data set on ScN2a cells, the “TC and safety concentration margin (in words)” value is “higher TCs, therefore higher safety concentration margins”; the “Concentration of inhibiting cell proliferation TC” value was found to be 100 µM. Further, in data set [1], the IC50 is 1 nM and the “Inhibitory effects on producing abnormal prion proteins (in words)” value (“Inhibitory effects” below) is given as “highly inhibitory effects”. Moreover, the MTD in the data set “in vivo” is not below 10 mg/kg. In addition, the “Detection” value in data set [2] is on record as “spotted fluorescent signals were observed”. For the same compound, in data set [3], the “Permeability into the brain: content in Brain” value is listed as 16.0 % ID/g or ml and the “Permeability into the brain: content in Plasma” value was 1.3 % ID/g or ml.

`CCN(CC)c1ccc(/C=C/c2nc3ccccc3[nH]2)cc1` [BF-126, 4-[2-(2-benzimidazole)-ethenyl]-N,N-diethyl-benzenamine p-toluenesulfonate]: in the data set on ScN2a cells, the “Concentration of inhibiting cell proliferation TC” value was 25 µM. Besides, the IC50 in data set [1] stood at 100 nM. In the data set “in vivo”, this compound had an MTD not below 10 mg/kg. Moreover, the “Detection” value in data set [2] is “spotted fluorescent signals were observed”. In addition, in data set [3], the “Permeability into the brain: content in Brain” value is listed as 7.2 % ID/g or ml and the “Permeability into the brain: content in Plasma” value was 2.7 % ID/g or ml.

On to `CCN(CC)c1ccc(/C=C/c2nc3ccccc3o2)cc1` [BF-125, 4-[2-(2-benzoxazolyl)ethenyl]-N,N-diethyl benzeneamine hydrochloride], for which, in the data set on ScN2a cells, the “Concentration of inhibiting cell proliferation TC” value turned out to be 50 µM. The IC50 in data set [1] turned out to be 100 nM. The MTD in “in vivo” was not below 10 mg/kg. For the same compound, the “Detection” value in data set [2] is given as “spotted fluorescent signals were observed”. Also, in data set [3], the “Permeability into the brain: content in Brain” value is given as 3.0 % ID/g or ml and the “Permeability into the brain: content in Plasma” value is reported as 2.5 % ID/g or ml.

Take `CN(C)c1ccc(/C=C/c2ccc3ccccc3n2)cc1` [BF-179, 2-[2-(4-dimethylamino-phenyl)ethenyl]-quinoline]: the “Concentration of inhibiting cell proliferation TC” value in the data set with ScN2a cells stood at 5 µM. In data set [1], the IC50 was found to be 5 nM. The MTD in “in vivo” was not below 10 mg/kg. The “Detection” value in data set [2] is reported as “spotted fluorescent signals were observed”. Moreover, in data set [3], the “Permeability into the brain: content in Brain” value was 4.3 % ID/g or ml and the “Permeability into the brain: content in Plasma” value is 1.7 % ID/g or ml.

Consider `Cc1ccc2sc(/C=C/c3ccc(Cl)cc3)nc2c1` [Compound N-441, 2-[2-(4-chlorophenyl)ethenyl]-5-methyl-benzothiazole], for which, in the data set on ScN2a cells, the “TC and safety concentration margin (in words)” value is on record as “higher TCs, therefore higher safety concentration margins”; the “Concentration of inhibiting cell proliferation TC” value amounted to 100 µM. In data set [1], the IC50 was 1 nM and the “Inhibitory effects” value is recorded as “highly inhibitory effects”. Besides, in “in vivo”, the MTD is not below 10 mg/kg. Further, in data set [2], the “Detection” value was “spotted fluorescent signals were observed”. Further, in data set [3], the “Permeability into the brain: content in Brain” value is given as 5.6 % ID/g or ml and the “Permeability into the brain: content in Plasma” value is 2.7 % ID/g or ml.

With `CNc1ccc(/C=C/c2nc3ccc(OCCF)cc3o2)cc1` [BF-168, 6-(2-fluoroethoxy)-2-[2-(4-methylamino-phenyl)ethenyl]-benzoxazole], the “Concentration of inhibiting cell proliferation TC” value with ScN2a cells was found to be 10 µM. Further, in data set [1], the IC50 is 1 nM and the “Inhibitory effects” value is recorded as “highly inhibitory effects”. The compound also returned an MTD in “in vivo” not below 10 mg/kg. In data set [2], the “Detection” value was “spotted fluorescent signals were observed”.
